Data reported in US9861606B2, “Therapeutic for treating inflammatory lung disorders” (University College Cardiff Consultants Limited, priority 2012, dated 2018).

How the values were obtained:
[1] = test system: BalbC mice; experiment: Polycation-induced bronchial hyper-reactivity (Penh, plethysmography) in methacholine-challenged conscious mice; format: in vivo, mouse; settings: nebulised 3 μM; poly-L-arginine 3 μM; methacholine challenge
Method: FIG. 5. […] prevent polycation-evoked BHR in methacholine-challenged mice. […] After the treatment, animals were placed in plethysmography chambers (Buxco, USA), allowed to settle for 10 minutes, and then they were challenged with methacholine (MCh, 0.1-10 mg/ml). Responses to methacholine obtained from the animals that have not received any treatments are shown in black symbols. From our previous estimates, 1-5% of the nebulised drug reaches the lung epithelium. […] FIG. 12. […] Male BalbC mice ( 25 g) were purchased from Harlan 1 week before the experimental protocols were performed. […] On the day of the experiment, the body weight of each mouse was recorded and mice were allowed to acclimatise to the chamber for at least 10 min before recordings were made. Then, respiratory activity was recorded for 5 min, to establish baseline value for Penh. […] Data were recorded for 3 minutes after each aerosol administration. The Penh values at each MCh concentration were averaged and expressed as a proportion of baseline Penh (Penh before treatment). […] The Penh values at each MCh concentration were averaged and expressed as a proportion of that day's baseline Penh (Penh after treatment). […] Effect of Polycations and of the Calcilytic NPS89636 on Bronchial Hyper-Reactivity in Unrestrained, Conscious Mice In Vivo Baseline airway hyper-responsiveness was measured by plethysmography. […]

[2] = test system: mouse intralobular bronchi; experiment: Wire myography: effect of calcilytic on ACh-precontracted mouse intralobular bronchi; settings: 300 nM or 3 micromolar; ACh 1 micromolar precontraction; WT mice
Method: Second/third order intralobular bronchi were dissected from the lung left lobe of WT or CaSR KO mice, mounted in small vessel myograph. Bronchi were gradually stretched to reach 2 mN of passive tension. After 30 min of equilibration time, the reactivity of the bronchi was tested by addition of 40 mM KCl to the bath. […] Data are shown as mean±SEM percentage change from baseline. […] Bronchi were left to settle at 37° C. for 30 min, then gradually stretched to reach 2 mN of passive tension. After 30 min of equilibration time, the reactivity of the bronchi was tested by addition of 40 mM KCl to the bath.

CCc1ccc(CC(C)(C)NCC(O)COc2cc(-c3ccc(C(=O)O)cc3)ccc2C#N)c(F)c1.Cl (stereo in doubt) [NPS89636, (S)-4′-cyano-3′-[3-[2-(4-ethyl-2-fluorophenyl)-1,1-dimethylethylamino]-2-hydroxy-propoxy]-biphenyl-4-carboxylic acid hydrochloride]
Effect on poly-L-arginine-induced increase in airway reactivity (Penh) [1]: completely prevented | Relaxation of acetylcholine-preconstricted intralobular bronchi [2]: mild relaxation
